Laboratory results reported in ChEMBL document CHEMBL1144166 (Bioorg Med Chem, 2008).
Where “and” joins values, the source holds several entries; their conditions need not be identical. Equal values may be shown once.

Key:
[1] = Inhibition of baboon liver mitochondrial monoamine oxidase B using 30 to 120 uM of MMTP by spectrophotometry; parameters: species or system Papio
[2] = system: Papio; assay: Inhibition of baboon liver mitochondrial monoamine oxidase B at 30 uM by spectrophotometry
[3] = biological target: Adenosine receptor A2a (Rattus norvegicus, UniProt P30543)
Adenosine receptor A2a, sequence (P30543 whole entry): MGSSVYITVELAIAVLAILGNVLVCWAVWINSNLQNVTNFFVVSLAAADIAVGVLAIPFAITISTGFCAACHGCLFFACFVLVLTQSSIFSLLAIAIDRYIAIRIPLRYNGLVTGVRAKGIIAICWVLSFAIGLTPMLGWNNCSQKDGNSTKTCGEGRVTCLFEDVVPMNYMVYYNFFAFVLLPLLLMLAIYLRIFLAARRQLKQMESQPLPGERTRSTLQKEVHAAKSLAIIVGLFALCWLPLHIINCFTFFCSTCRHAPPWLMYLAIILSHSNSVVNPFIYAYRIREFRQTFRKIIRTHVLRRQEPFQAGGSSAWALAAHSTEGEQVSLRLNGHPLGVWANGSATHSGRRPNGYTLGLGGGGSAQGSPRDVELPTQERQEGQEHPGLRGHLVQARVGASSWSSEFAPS
Description: Displacement of [3H]NECA from Sprague-Dawley rat adenosine A2A receptor by scintillation counting

[4] = Inhibition of baboon liver mitochondrial monoamine oxidase B using 50 uM of MMTP by spectrophotometry; parameters: species or system Papio
[5] = system: Papio; assay: Inhibition of baboon liver mitochondrial monoamine oxidase B at 1000 uM by spectrophotometry

For `Cn1c(=O)c2c(nc(-c3ccccc3)n2C)n(C)c1=O`, the Ki [1] was 86200 nM.
Compound `CCn1c(=O)c2c(nc(/C=C/C=C/c3ccccc3)n2CC)n(CC)c1=O` has an inhibition [2] of 14.6% and a Ki [3] of 7.73 nM.
`Cn1c(=O)c2c(nc(/C=C/C=C/c3cccc(Br)c3)n2C)n(C)c1=O` showed an IC50 [4] of 37.9 nM, a Ki [4] of 21.9 nM and a Ki [1] of 17.2 nM. The Ki [3] was 59.1 nM.
`CCn1c(=O)c2c(nc(/C=C/C=C/c3ccccc3)n2C)n(CC)c1=O` gave an inhibition [2] of 32.7% and a Ki [3] of 2.74 nM.
With `Cn1c(=O)c2c(nc(/C=C/c3ccc(Cl)c(Cl)c3)n2C)n(C)c1=O` the IC50 [4] was 28.4 nM and 16.4 nM and the Ki [1] was 18.9 nM.
`Cn1c(=O)c2c(nc(/C=C/c3cccc(Br)c3)n2C)n(C)c1=O` gave an IC50 [4] of 107 nM, a Ki [4] of 61.8 nM and a Ki [1] of 62.7 nM.
For `Cn1c(=O)c2c(nc(/C=C/C=C/c3cccc(F)c3)n2C)n(C)c1=O`, the IC50 [4] was 89 nM, the Ki [4] was 51.4 nM and the Ki [1] was 46.4 nM. It also gave a Ki [3] of 114 nM.
In the case of `Cn1c(=O)c2c(nc(/C=C/C=C/c3cccc(Cl)c3)n2C)n(C)c1=O`, the IC50 [4] is reported as 96.3 nM, the Ki [4] is reported as 55.6 nM and the Ki [1] is reported as 42.1 nM. The Ki [3] was 104 nM.
In the case of `Cn1c(=O)c2c(nc(/C=C/C=C/c3ccccc3)n2C)n(C)c1=O`, the IC50 [4] is reported as 383 nM, the Ki [4] is reported as 221 nM and the Ki [1] is reported as 149 nM. It also gave a Ki [3] of 153 nM.
`Cn1c(=O)c2c(nc(Cc3cccc(Cl)c3)n2C)n(C)c1=O` gave a Ki [1] of 54600 nM.
Compound `Cn1c(=O)c2c(nc(-c3cccc(C(F)(F)F)c3)n2C)n(C)c1=O` has an inhibition [5] of 24%.
`Cn1c(=O)c2c(nc(Cc3cccc(C(F)(F)F)c3)n2C)n(C)c1=O` gave a Ki [1] of 97600 nM.
For `Cn1c(=O)c2c(nc(-c3cccc(Cl)c3)n2C)n(C)c1=O`, the Ki [1] was 36000 nM.
Compound `CCn1c(/C=C/C=C/c2ccccc2)nc2c1c(=O)n(C)c(=O)n2C` has an IC50 [4] of 2370 nM, a Ki [4] of 1370 nM and a Ki [1] of 1710 nM. The Ki [3] was 13.5 nM.
For `Cn1c(=O)c2c(nc(Cc3ccccc3)n2C)n(C)c1=O`, the inhibition [5] was 18%.
